According to patent publication US20080227752A1, “Methods to Inhibit Histone Acetyltransferase Using Glycosaminoglycans” (Trustees of Boston University, priority 2004, published 2008):

How the values were obtained:
[1] = system: histone H3 acetylation in pulmonary fibroblasts; assay: Histone H3 acetylation in pulmonary fibroblasts by western blot; type: cell-based, neonatal rat; settings: 10 μg/ml, 24 h
Experimental: (§1) Primary neonatal rat fibroblasts and smooth muscle cells were established as described (Foster, J. A. et al., (1990)) and treated with heparin or N-desulfated heparin (10 μg/ml) for 24 h. Total cell extracts (100 μg protein for fibroblasts and 200 μg protein for smooth muscle cells) were generated and subjected to SDS-PAGE followed by electrotransfer to Immobilon membrane. Membranes were incubated with anti-acetylated histone H3 (Upstate) followed by enzyme linked secondary antibody. Bands were visualized with ECL.
Primary cultures of pulmonary fibroblasts were isolated from the lungs of neonatal rats using established protocols (Foster, J. A., et al., (1990) Pulmonary fibroblasts: an in vitro model of emphysema. Regulation of elastin gene expression, J Biol Chem 265, 15544-9). The cells were maintained in Dulbecco's Minimal Essential Medium supplemented with 5% fetal bovine serum, 0.1 mM non-essential amino acid solution, 100 U/ml penicillin and 100 μg/ml streptomycin. The cells were used in second passage for all experiments. Cell number determination was made based upon assay of cellular acid phosphatase levels using a previously established method (Connolly, D. T., et al., (1986) Anal. Biochem. 152, 136-140).
Immobilon membranes were blocked for 1 hour at room temperature with blocking buffer containing 3% milk in tris buffered saline containing 0.1% tween-20 (TBST). […]

[2] = system: histone H3 acetylation in aortic smooth muscle cells; assay: Histone H3 acetylation in aortic smooth muscle cells by western blot; type: cell-based, neonatal rat; settings: 10 μg/ml, 24 h
Experimental: as §1
Immobilon membranes were blocked for 1 hour at room temperature with blocking buffer containing 3% milk in tris buffered saline containing 0.1% tween-20 (TBST). The blots were rinsed twice with TBST prior to incubation with the primary antibody solutions. The blots were incubated with the appropriate antibody dilution for 1 hour at room temperature or overnight at 4° C. The blots were washed with TBST prior to incubation with the appropriate HRP-linked IgG for 1 hour at room temperature. The blots were washed with TBST prior to chemiluminescence exposure.
We also treated another cell type, aortic smooth muscle cells, with heparin to determine if this response was general or specific to the pulmonary cells.

With heparin [reference compound] the “level of histone H3 acetylation” value [1] was “reduced histone H3 actetylation slightly” and the “level of histone H3 acetylation” value [2] was “significant reduction of histone H3 acetylation”.
